The values that follow are results of earlier work, collected in patent US20110236538A1, “CHITIN DERIVATIVE AND NATURAL SWEETENER CONJUGATE FOR CONTROLLING INGESTED FAT IN HUMANS AND HAVING SWEETENING PROPERTIES” (priority 2008, published 2011).

For the data set the following is noted: successive lines = successive pKa of di- and trivalent acids.

Turning to `O=C(O)C(Cl)(Cl)Cl` [Trichloroacetic], the “pKa (25° C.)” value is given as 0.70.
